Assays:
[1] = target: T1, recombinant S3H (Arabidopsis thaliana, UniProt Q9ZSA8); assay: Enzyme assay of recombinant S3H (substrate specificity and kinetics); type: biochemical; conditions: for S3H enzyme activity on substrate (in words): 30-min reaction under the same conditions as those for SA
T1 construct: His (N); made in house; host or cells: E. coli BL21 (DE3, pLys3)
T1 sequence (Q9ZSA8 1-349): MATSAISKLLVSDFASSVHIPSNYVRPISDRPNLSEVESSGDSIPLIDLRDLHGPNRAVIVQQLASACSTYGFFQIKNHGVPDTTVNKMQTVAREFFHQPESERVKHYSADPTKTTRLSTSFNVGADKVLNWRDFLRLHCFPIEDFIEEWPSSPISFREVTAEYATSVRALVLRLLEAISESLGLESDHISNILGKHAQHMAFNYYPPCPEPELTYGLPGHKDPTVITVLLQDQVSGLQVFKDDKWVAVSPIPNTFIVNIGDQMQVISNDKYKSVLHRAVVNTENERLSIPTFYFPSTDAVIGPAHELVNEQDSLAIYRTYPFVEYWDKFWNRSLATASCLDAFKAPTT
Protocol: (§1) The construct pET28a-S3H was introduced into E. coli BL21 (DE3, pLys3, Invitrogen, Carlsbad, Calif.). The bacterial cells containing pET28a-S3H were induced with 0.5 mM isopropyl β-D-1-thiogalactoside (IPTG) for 24 hr at 18° C., and were collected and disrupted by sonication in lysis buffer (20 mM Tris-Cl, pH7.5, 2 mM EDTA, 2 mM β-mercaptoethanol, 1 mM PMSF, 10 mM Imidazole, 0.1% Triton X-100, 20 mM sodium ascorbate). All subsequent purification procedures involving His-Bind® resin were performed at 4° C. according to the manufacturer (Novagen, Madison, Wis.). The recombinant protein concentration was quantified using Quick Start Bradford Dye Reagent (Biorad, Hercules, Calif.). 2 mM DTT was added to the enzyme solution and the protein was immediately kept in a −80° C. refrigerator.
(§2) The enzyme assay was performed using a method modified from Satio et al. (Saito et al., “Direct Evidence for Anthocyanidin Synthase as a 2-Oxoglutarate-Dependent Oxygenase: Molecular Cloning and Functional Expression of cDNA From a Red Forma of Perilla frutescens,” Plant J. 17(2):181-189 (1999), which is hereby incorporated by reference in its entirety). The reaction mixture (100 μl) contained 5 mM DTT, 4 mM sodium ascorbate, 1 mM 2-oxoglutaric acid, 0.4 mM FeSO4, 0.1 mg/ml catalase, 50 mM Tris-Cl pH8.0 or other buffer, 8-15 μg recombinant protein, various concentrations of SA. To determine the optimal temperature and pH for enzyme activity of S3H, the protein was incubated with 200 μM SA substrate in Tris-Cl buffer (pH8.0) at different temperatures for 15 min; or 500 μM SA substrate, in 50 mM Sodium citrate, Tris-Cl and Glycine buffers with different pH at 40° C. for 15 min. For enzyme kinetics analysis, various substrate SA concentrations ranging from 10 to 500 μM were used and the incubation proceeded for 6 min with pH 6.0. […] Mass spectra were recorded over 15 to 800 m/z in the negative mode. Km and Vmax were determined by Graphpad Prism 5 software using non-linear regression for Michaelis-Menten equation.

[2] = test system: S3H; assay: SA treatment of plants, RNA gel blot analysis of S3H expression; type: in vivo, Arabidopsis thaliana; conditions: 5 mM SA spray, Col-0 plants 25 DAG, 6 hours
Protocol: All chemicals used in this research were purchased from Sigma-Aldrich (St. Louis, Mo.), unless otherwise stated. Col-0 plants (25 DAG) were sprayed with 5 mM SA in 0.005% Silwet L-77 (Lehele Seeds, Tex.) or only 0.005% Silwet L-77 (mock). All rosette leaves of individual plants for RNA extraction were collected at different time points after the spray.
Total RNA extraction and RNA blot analysis were performed as described previously (He & Gan, “A Gene Encoding an Acyl Hydrolase Is Involved in Leaf Senescence in Arabidopsis,” Plant Cell 14(4):805-815 (2002), which is hereby incorporated by reference in its entirety). The DNA templates for probe labeling were amplified by the following different pairs of primers: S3H, G2956 and G2957; AtNAP, G3149 and G3150; SAG12, G10 and G246; SAG13, G9 and G16; EDS1, EDS1F and EDS1R; PAD4, PAD4F and PAD4R; PR1, PR1F and PR1R (FIG. 1E). The ethidium bromide staining of the RNA gels was used to show approximate amount of total RNA loading on each lane.

[3] = test system: S3H; conditions: 10 μM, Col-0 (Seedling), 3 hrs; cited from earlier work
[4] = substrate: O=C(O)c1ccccc1O; assay: Enzyme assay of recombinant S3H (substrate specificity and kinetics); type: biochemical, Arabidopsis thaliana; conditions: other: pH 6.0 and 40° C. for 6 min, mean ± SE of four replicates
Protocol: as §1, §2

With `Nc1ccccc1C(=O)O` [Anthranilic acid] the “S3H enzyme activity on substrate (in words)” value [1] was “did not have detectable activity”.

For `O=C(O)c1ccccc1` [Benzoic acid], the “S3H enzyme activity on substrate (in words)” value [1] was “did not have detectable activity”.

For `O=C(O)c1ccccc1O` [Salicylic acid], the Specific activity ([1]; pH 6.0 and 40° C. for 30 min, mean ± SE of three replicates, n.d. = not detectable) is listed as 78.06 ± 9.75 nmol/mg/min, the “S3H expression after SA treatment (RNA gel blot)” value [2] is listed as “readily inducible” and the “Induction folds of S3H” value [3] is listed as 36.72.

B1: recombinant S3H (Arabidopsis thaliana) (protein)
chain: T1 sequence (Q9ZSA8 1-349)
notes: His (N); made in house; host or cells: E. coli BL21 (DE3, pLys3)
Work on B1 yielded a Km [4] of 58.29 µM, a Vmax [4] of 0.498 µmol/min/mg and a kcat/Km [4] of 6090 M⁻¹ s⁻¹.

— patent publication US9873889B2, “Increasing leaf longevity and disease resistance by altering salicylic acid catabolism” (priority 2013, dated 2018)
